Laboratory results reported in patent US20090209517A1, “Use of 5H-dibenz/b,f/azepine-5-carboxamide derivatives in the treatment of neuropathic pain and neurological disorders” (priority 2006, published 2009).
Where two headings read alike, the source gives them in different places. One block for each molecule: values may come before it.

What was measured:
Mice (NMRI) [1] = experiment: Formalin paw test (licking time); format: in vivo; conditions: for Formalin paw test licking time (s) at 100 mg/kg: 100 mg/kg p.o., 60 min before test, vehicle-treated mice 81.0±13.8 s; for Effect on licking in the formalin test at 300 mg/kg: 300 mg/kg p.o.; for ED50: Mus musculus, po, doses 10-300 mg/kg, FIG. 1, read-out: ED50 for reduction of licking time in the formalin paw test
Description: The method, which detects analgesic/anti-inflammatory activity, follows that described by Wheeler-Aceto et al (see WHEELER-ACETO, H. & A., C. (1991), “Standardization of the rat paw formalin test for the evaluation of analgesics”, Psychopharmacology, 104, 35-44). Mice (NMRI) were given an intraplantar injection of 5% formalin (25 μl) into the posterior left paw. […] The time spent licking was counted for 15 minutes, beginning 15 minutes after injection of formalin. 10 mice were studied per group. The test was performed blind. ESL and CBZ were tested at the doses of 10, 30, 100 and 300 mg/kg p.o., and OXC and R-Lic were tested at the doses of 100 and 300 mg/kg p.o., administered 60 minutes before the test (i.e. 45 minutes before formalin), and compared with a vehicle control group in each experiment.

[2] = Rotarod test (motor impairment); format: in vivo, mice; conditions: male, mouse, in vivo, ip; intraperitoneally, 15 min after administration, 15 r.p.m.
Description: (§1) A normal mouse can maintain its equilibrium for long periods in the rotating rod. Mice were examined for motor toxicity in the rotating rod apparatus (Accelerator Rota-Rod [Jones & Roberts] 7650; Ugo Basile). The motor performance of naive mice (male Charles River, weighing 30 to 35 g) was evaluated 15 min after the administration of the compounds to be tested. Animals were placed on the rotating rod at a speed of 15 r.p.m. In a drug-treated mouse the neurological deficit is indicated by the inability of the animal to maintain equilibrium for 1 min in each of three trials. ESL, CBZ, OXC and R-Lic were dissolved in dimethyl sulfoxide (DMSO) (2 ml/kg) and given intraperitoneally (see ROGAWSKI, M. A., […], S., JONES, S. M., RICE, K. C., […], A. & MONN, J. A. (1991). Anticonvulsant activity of the low-affinity uncompetitive N-methyl-D-aspartate antagonist (+−)-5-aminocarbonyl-10,11-dihydro-5H-dibenzo[a,d]cyclohepten-5,10-imine (ADCI): comparison with the structural analogs dizocilpine (MK-801) and carbamazepine. J Pharmacol Exp Ther, 259, 30-37).

Mice (NMRI) [3] = conditions: mouse, in vivo
[4] = test system: voltage-sensitive sodium channels; experiment: [3H]BTX displacement binding to whole brain membranes; conditions: FIG. 3; for Degree of interaction with site 2 in voltage-gated sodium channels, relative to oxcarbazepine: [3H]-BTX displacement
Description: Blockade of voltage-sensitive sodium channels was studied by investigating [3H]batrachotoxinin A […] ([3H]BTX) displacement binding to whole brain membranes. Animals were decapitated and their brains quickly removed. Membrane preparation and binding assays were performed essentially as previously described (Shimidzu et al., 1997). Brains (without cerebellum) were homogenised in 10 vol 0.32 M sucrose, 1 mM EDTA, 1 mg/ml bovine serum albumin (BSA), 5 mM HEPES/TRIS pH 7.4 with a Teflon homogeniser (8 strokes at 400 r.p.m). After a 10 min centrifugation at 1,000 g the supernatants were centrifuged for 20 min at 39,000 g and pellets were homogenised with 20 vol or 40 vol Na+-free buffer, respectively for [3H]-batrachotoxinin A 20-alpha-benzoate ([3H]-BTX) binding assays. Na+-free buffer had the following composition (in mM): 130 choline chloride, 0.8 MgSO4, 5.4 KCl, 5.5 D-glucose, 50 HEPES/TRIS, pH 7.4. The homogenate was centrifuged for 20 min at 39,000 g and the resultant pellets were resuspended in Na+-free buffer. Protein concentration in membrane preparations was determined with BioRad Protein Assay (BioRad) using a standard curve of BSA (50-250 μg/ml). In [3H]-BTX binding assay experiments membrane preparations (200 μg protein) were incubated for 1 h at 37° C. with 10 nM (inhibition experiments) or 1-200 nM (saturation experiments) [3H]-BTX in Na+-free buffer containing 2 μM scorpion toxin, 1 μM tetrodotoxin and 1 mg/ml BSA in 96-well EIA/RIA plates (COSTAR). In inhibition experiments the reaction buffer contained also 3-1000 μM of test drugs. Nonspecific binding was determined in the presence of 300 μM veratridine. Nonspecific binding was 26±2% of total binding at 10 nM [3H-BTX]. After incubation the reaction was terminated by vacuum filtration (Brandel 96 harvester) through glassfiber filtermats (Wallac). […] Filtermats were dried, impregnated with MeltiLex A scintillation mixture (Wallac), inserted into plastic sample bags (Wallac) and radioactivity determined in a Microbeta 1224-510 counter (Wallac).

[5] = humans; subject-dependent; cited from earlier work
[6] = test system: naive mice (male Charles River); experiment: Rotarod test (motor impairment); format: in vivo; conditions: intraperitoneally, 15 min after administration, 15 r.p.m.
Description: as §1

[7] = test system: voltage-gated sodium channel (VGSC); conditions: cited from earlier work

Structure (SMILES): NC(=O)N1c2ccccc2CC(=O)c2ccccc21 [Oxc, oxcarbazepine, reference compound]
Formalin paw test licking time (s) at 100 mg/kg (Mice (NMRI) [1]): 1 s | ED50 at 15 min [2]: 50.2 mg/kg | Sedation (%) at 300 mg/kg (Mice (NMRI) [3]; NMRI): 90%

Degree of interaction with site 2 in voltage-gated sodium channels, relative to oxcarbazepine [4]: approximately 2.5 times less
Structure (SMILES): NC(=O)N1c2ccccc2C[C@H](O)c2ccccc21 [S-Lic, S-licarbazepine]
Proportion in which the enantiomer is formed as metabolite of oxcarbazepine [5]: approximately 80%

Structure (SMILES): NC(=O)N1c2ccccc2C[C@@H](O)c2ccccc21 [R-Lic, R-licarbazepine]
Formalin paw test licking time (s) at 100 mg/kg (Mice (NMRI) [1]): 36.7 s | Rotarod test ED50 values [6]: 97.4 mg/kg | Sedation (%) at 300 mg/kg (Mice (NMRI) [3]): 20% | Ability to displace [3H]-BTX from its binding site in whole brain membranes, compared with oxcarbazepine [4]: reduced ability to displaced | Degree of interaction with site 2 in voltage-gated sodium channels, relative to oxcarbazepine [4]: approximately 2.5 times less | Proportion in which the enantiomer is formed as metabolite of oxcarbazepine [5]: ~20%

Structure (SMILES): NC(=O)N1c2ccccc2C=Cc2ccccc21 [CBZ, carbamazepine, reference compound]
Formalin paw test licking time (s) at 100 mg/kg (Mice (NMRI) [1]): 5.3 s | Effect on licking in the formalin test at 300 mg/kg (Mice (NMRI) [1]): abolished licking | ED50 (Mice (NMRI) [1]): 38.2 mg/kg | ED50 at 15 min [2]: 29.7 mg/kg | Sedation (%) at 300 mg/kg (Mice (NMRI) [3]; NMRI): 100% | Sedation observed (mice sedated / mice given) (Mice (NMRI) [3]; NMRI): 10/10

Structure (SMILES): CC(=O)O[C@H]1Cc2ccccc2N(C(N)=O)c2ccccc21 [ESL, S-(−)-10-acetoxy-10,11-dihydro-5H-dibenz/b,f/azepine-5-carboxamide]
Formalin paw test licking time (s) at 100 mg/kg (Mice (NMRI) [1]): 33.6 s | Effect on licking in the formalin test at 300 mg/kg (Mice (NMRI) [1]): abolished licking | ED50 (Mice (NMRI) [1]): 69.7 mg/kg | ED50 at 15 min [2]: 139 mg/kg | Sedation (%) at 300 mg/kg (Mice (NMRI) [3]; NMRI): 10% | Sedation observed (mice sedated / mice given) (Mice (NMRI) [3]; NMRI): 1/10 | Affinity for the resting state of the channel relative to CBZ [7]: about 3 fold lower
